Converted amounts (≈) assume the structure as drawn. Where two headings read alike, the source gives them in different places.
Columns and labels:
Botrtyis cinerea (Bc) = test: In vitro pathogen growth inhibition assay, Bc; format: cell-based; conditions: 48 h
Method in brief: (§1)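 Value reported is the compound concentration reaching ≥90% growth inhibition, from OD readings at 24 and 48 h after blank subtraction, confirmed visually. Inoculum was spores diluted in 17% V8 medium, except Rs, using 1.5 mm mycelial plugs in ¼ PDB; actual compound concentration corrected via OD600.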

[1] = system: Collectotrichum graminicola (Cg); test: In vitro pathogen growth inhibition assay, Cg; format: cell-based; conditions: 48 h
Method in brief: as §1

Diplodia maydis (Dm) = test: In vitro pathogen growth inhibition assay, Dm; format: cell-based; conditions: Stenocarpella maydis, 48 h
Method in brief: (§2)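 Spores of Dm, Fv and Pc were diluted in 17% V8 liquid medium; Rs used 1.5 mm mycelial plugs in ¼ PDB. Compounds from 2.5 mg/ml DMSO stocks were combined with inoculum, growth was read by OD600 at 24 and 48 h with blank subtraction, and the reported value is the concentration giving ≥90% inhibition.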

[2] = system: Fusarium moniliforme (Fm); test: In vitro pathogen growth inhibition assay, Fm; format: cell-based; conditions: Fusarium verticillioides
Method in brief: as §1

[3] = system: Fusarium virguliforme (Fv); test: In vitro pathogen growth inhibition assay, Fv; format: cell-based
Method in brief: as §2

[4] = system: Phytophthora capsici (Pc); test: In vitro pathogen growth inhibition assay, Pc; format: cell-based; conditions: 48 h
Method in brief: as §2

Rhizoctonia solani (Rs) = test: In vitro pathogen growth inhibition assay, Rs (mycelial plugs); format: cell-based; conditions: Rhizoctonia solani, 48 h, mycelial plugs
Method in brief: as §2

Septoria tritici (St) = test: In vitro pathogen growth inhibition assay, St; format: cell-based; conditions: Zymoseptoria tritici, 48 h
Method in brief: as §1

[5] = system: Blumeria graminis f. sp. hordei; test: Foliar protection test for barley powdery mildew control; format: in vivo; conditions: foliar spray on Hordeum vulgare cv. Perry, inoculated 24 hours after treatment, evaluated 7 days later
Method in brief: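 Protective foliar test: compound atomized onto both leaf surfaces of 6-day-old Hordeum vulgare cv. Perry, followed after 24 h by spore-cloud inoculation from colonized untreated plants. Disease rated on leaves 7 days on, plants held at 20 to 22° C and 70% RH.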

Sphaerotheca fuliginea = test: Foliar protection for cucumber powdery mildew control; format: in vivo; conditions: foliar spray on Cucumis sativus cv. Straight Eight, inoculated 24 hours after treatment, evaluated 7 days later
Method in brief: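 Protective foliar spray on 10-day-old Straight Eight cucumbers, with S. fuliginea spores dusted from infected stock plants 24 h after treatment. Disease developed at 23–27 °C, 60% RH and a 16 h photoperiod. Leaves were rated for mildew growth after 7 days; test rates 10 ppm or below.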

[6] = system: Mycosphaerella graminicola (synthetic Septoria tritici); test: Foliar protection test for wheat septoria leaf blotch control; format: in vivo; conditions: foliar spray on Triticum aestivum cv. WinterHawk, inoculated 1 hour after treatment, evaluated 16 days later
Fusarium graminearum = format: in vivo; conditions: spray on flowering Triticum aestivum cv. Samson, inoculated 24 hours after treatment, evaluated 14 days later
Puccinia triticina = test: Foliar protection test for wheat leaf rust control; format: in vivo; conditions: foliar application to wheat (Triticum aestivum cv. Winterhawk), evaluated 10 days later
Phakopsora pachyrhizi = test: Foliar protection test for Asian soybean rust control; format: in vivo; conditions: foliar application to soybean (Glycine max AG4832), percent disease area evaluated 14 days later
[7] = ≥90% growth inhibition, 48 hours, vs 2% DMSO control, read-out: Compound Concentration (ppm) sufficient for ≥90% inhibition of Bc
[8] = ≥90% growth inhibition, 48 hours, vs 2% DMSO control, read-out: Compound Concentration (ppm) sufficient for ≥90% inhibition of Cg
[9] = ≥90% growth inhibition, 48 hours, vs 2% DMSO control, read-out: Compound Concentration (ppm) sufficient for ≥90% inhibition of Dm
[10] = ≥90% growth inhibition, 48 hours, vs 2% DMSO control, read-out: Compound Concentration (ppm) sufficient for ≥90% inhibition of Fm
[11] = ≥90% growth inhibition, 48 hours, vs 2% DMSO control, read-out: Compound Concentration (ppm) sufficient for ≥90% inhibition of Fv
[12] = ≥90% growth inhibition, 48 hours, vs 2% DMSO control, read-out: Compound Concentration (ppm) sufficient for ≥90% inhibition of Pc
[13] = ≥90% growth inhibition, 48 hours, vs 2% DMSO control, read-out: Compound Concentration (ppm) sufficient for ≥90% inhibition of Rs
[14] = ≥90% growth inhibition, 48 hours, vs 2% DMSO control, read-out: Compound Concentration (ppm) sufficient for ≥90% inhibition of St

Row | Compound | IC90 (Botrtyis cinerea (Bc); [7]) [µg/mL] | IC90 [1, 8] [µg/mL] | IC90 (Diplodia maydis (Dm); [9]) [µg/mL] | IC90 [2, 10] [µg/mL] | IC90 [3, 11] [µg/mL] | IC90 [4, 12] [µg/mL] | IC90 (Rhizoctonia solani (Rs); [13]) [µg/mL] | IC90 (Septoria tritici (St); [14]) [µg/mL] | Barley Powdery Mildew Control at a compound concentration of 10 ppm or lower [5] | Cucumber Powdery Mildew Control at a compound concentration of 10 ppm or lower (Sphaerotheca fuliginea) | Septoria Leaf Blotch Control at a compound concentration of 25 ppm or lower [6] | Wheat Fusarium Head Blight Control at a compound concentration of 25 ppm or lower (Fusarium graminearum) | Wheat Leaf Rust Control at a compound concentration of 10 ppm or lower (Puccinia triticina) | Asian Soybean Rust Control at a compound concentration of 25 ppm or lower (Phakopsora pachyrhizi) | also measured
1 | COc1ccc(F)cc1[C@H](Cn1c(=O)n(C(C)(C)C(=O)NC(C)C)c(=O)c2c(C)c(-n3nccn3)sc21)OC(C)=O [Compound I-323, (R)-1-(5-fluoro-2-methoxyphenyl)-2-(3-(1-(isopropylamino)-2-methyl-1-oxopropan-2-yl)-5-methyl-2,4-dioxo-6-(2H-1,2,3-triazol-2-yl)-3,4-dihydrothieno[2,3-d]pyrimidin-1(2H)-yl)ethyl acetate] | 0.4 | 0.4 | ≥ 0.4 | 0.08 | 0.08 | > 50 | 0.08 | > 50 | AA (≥85% control of barley powdery mildew) | AA (≥85% control of cucumber powdery mildew) | AA (≥85% control of wheat septoria leaf blotch) | C (from 25 to 49% control of wheat fusarium head blight) | AA (≥85% control of wheat leaf rust) | AA (≥85% control of Asian soybean rust) | –
2 | CCNC(=O)C(C)(C)n1c(=O)c2c(C)c(C(=O)OCC)sc2n(C[C@H](OCCC#N)c2ccccc2OC)c1=O [Compound I-234, (R)-ethyl-1-(2-(2-cyanoethoxy)-2-(2-methoxyphenyl)ethyl)-3-(1-(ethylamino)-2-methyl-1-oxopropan-2-yl)-5-methyl-2,4-dioxo-1,2,3,4-tetrahydrothieno[2,3-d]pyrimidine-6-carboxylate] | 2 (≈ 3.5 µM) | 2 (≈ 3.5 µM) | 2 (≈ 3.5 µM) | 0.08 (≈ 0.14 µM) | 2 (≈ 3.5 µM) | > 50 | 2 (≈ 3.5 µM) | > 10 | AA (≥85% control of barley powdery mildew) | AA (≥85% control of cucumber powdery mildew) | C (from 25 to 49% control of wheat septoria leaf blotch) | C (from 25 to 49% control of wheat fusarium head blight) | AA (≥85% control of wheat leaf rust) | A (from 70% to 84% control of Asian soybean rust) | –
3 | CCNC(=O)C(C)(C)n1c(=O)c2c(C)c(-n3nccn3)sc2n(C[C@H](OCCC#N)c2ccccc2OC)c1=O [Compound I-208, (R)-2-(1-(2-(2-cyanoethoxy)-2-(2-methoxyphenyl)ethyl)-5-methyl-2,4-dioxo-6-(2H-1,2,3-triazol-2-yl)-1,4-dihydrothieno[2,3-d]pyrimidin-3 (2H)-yl)-N-ethyl-2-methylpropanamide] | 0.4 (≈ 0.707 µM) | 2 (≈ 3.54 µM) | 2 (≈ 3.54 µM) | 0.4 (≈ 0.707 µM) | 0.4 (≈ 0.707 µM) | > 50 | 0.08 (≈ 0.141 µM) | > 50 | AA (≥85% control of barley powdery mildew) | AA (≥85% control of cucumber powdery mildew) | AA (≥85% control of wheat septoria leaf blotch) | C (from 25 to 49% control of wheat fusarium head blight) | AA (≥85% control of wheat leaf rust) | AA (≥85% control of Asian soybean rust) | –
4 | COc1ccccc1[C@H](Cn1c(=O)n(C(C)(C)C(=O)NC(C)C)c(=O)c2c(C)c(-n3cccn3)sc21)OCCC#N [Compound I-192, (R)-2-(1-(2-(2-cyanoethoxy)-2-(2-methoxyphenyl)ethyl)-5-methyl-2,4-dioxo-6-(1H-pyrazol-1-yl)-1,4-dihydrothieno[2,3-d]pyrimidin-3 (2H)-yl)-N-isopropyl-2-methylpropanamide] | 0.4 (≈ 0.691 µM) | ≥ 2 | 2 (≈ 3.46 µM) | 0.08 (≈ 0.138 µM) | 0.4 (≈ 0.691 µM) | 50 (≈ 86.4 µM) | 0.08 (≈ 0.138 µM) | ≥ 50 | AA (≥85% control of barley powdery mildew) | AA (≥85% control of cucumber powdery mildew) | A (from 70% to 84% control of wheat septoria leaf blotch) | D (<25% control of wheat fusarium head blight) | AA (≥85% control of wheat leaf rust) | AA (≥85% control of Asian soybean rust) | –
5 | COCCCO[C@@H](Cn1c(=O)n([C@H](C)C(=O)NC(C)C)c(=O)c2c(C)c(-n3nccn3)sc21)c1cc(F)ccc1OC [Compound I-094, (R)-2-(1-((R)-2-(5-fluoro-2-methoxyphenyl)-2-(3-methoxypropoxy)ethyl)-5-methyl-2,4-dioxo-6-(2H-1,2,3-triazol-2-yl)-1,4-dihydrothieno[2,3-d]pyrimidin-3 (2H)-yl)-N-isopropylpropanamide] | – | – | – | – | – | – | – | – | AA (≥85% control of barley powdery mildew) | AA (≥85% control of cucumber powdery mildew) | A (from 70% to 84% control of wheat septoria leaf blotch) | A (from 70% to 84% control of wheat fusarium head blight) | C (from 25 to 49% control of wheat leaf rust) | C (from 25 to 49% control of Asian soybean rust) | IC90 (Botrtyis cinerea (Bc); ≥90% inhibition, 48 hours vs 2% DMSO control, read-out: Compound Concentration (ppm) sufficient for ≥90% inhibition of growth, Bc): 0.08 µg/mL (≈ 0.133 µM); IC90 ([1]; ≥90% inhibition, 48 hours vs 2% DMSO control, read-out: Compound Concentration (ppm) sufficient for ≥90% inhibition of growth, Cg): 0.08 µg/mL (≈ 0.133 µM); IC90 (Diplodia maydis (Dm); ≥90% inhibition, 48 hours vs 2% DMSO control, read-out: Compound Concentration (ppm) sufficient for ≥90% inhibition of growth, Dm): > 0.4 µg/mL; IC90 ([2]; ≥90% inhibition, 48 hours vs 2% DMSO control, read-out: Compound Concentration (ppm) sufficient for ≥90% inhibition of growth, Fm): 0.08 µg/mL (≈ 0.133 µM); IC90 ([3]; ≥90% inhibition, 48 hours vs 2% DMSO control, read-out: Compound Concentration (ppm) sufficient for ≥90% inhibition of growth, Fv): 0.08 µg/mL (≈ 0.133 µM); IC90 ([4]; ≥90% inhibition, 48 hours vs 2% DMSO control, read-out: Compound Concentration (ppm) sufficient for ≥90% inhibition of growth, Pc): > 50 µg/mL; IC90 (Rhizoctonia solani (Rs); ≥90% inhibition, 48 hours vs 2% DMSO control, read-out: Compound Concentration (ppm) sufficient for ≥90% inhibition of growth, Rs): 0.08 µg/mL (≈ 0.133 µM); IC90 (Septoria tritici (St); ≥90% inhibition, 48 hours vs 2% DMSO control, read-out: Compound Concentration (ppm) sufficient for ≥90% inhibition of growth, St): ≥ 10 µg/mL
